Data set [1] concerns the target T1, 72 kDa type IV collagenase (Homo sapiens, UniProt P08253). Briefly: In vitro inhibitory activity against matrix metalloprotease 2 isolated from human HT1080 fibrosarcoma cells induced with TNF.
Data set [2] addresses T2, Stromelysin-1 (Homo sapiens, UniProt P08254). Briefly: In vitro inhibitory activity against human recombinant matrix metalloprotease 3.
The next data set addresses T3, Interstitial collagenase (Homo sapiens, UniProt P03956).
T3 sequence (P03956 whole entry): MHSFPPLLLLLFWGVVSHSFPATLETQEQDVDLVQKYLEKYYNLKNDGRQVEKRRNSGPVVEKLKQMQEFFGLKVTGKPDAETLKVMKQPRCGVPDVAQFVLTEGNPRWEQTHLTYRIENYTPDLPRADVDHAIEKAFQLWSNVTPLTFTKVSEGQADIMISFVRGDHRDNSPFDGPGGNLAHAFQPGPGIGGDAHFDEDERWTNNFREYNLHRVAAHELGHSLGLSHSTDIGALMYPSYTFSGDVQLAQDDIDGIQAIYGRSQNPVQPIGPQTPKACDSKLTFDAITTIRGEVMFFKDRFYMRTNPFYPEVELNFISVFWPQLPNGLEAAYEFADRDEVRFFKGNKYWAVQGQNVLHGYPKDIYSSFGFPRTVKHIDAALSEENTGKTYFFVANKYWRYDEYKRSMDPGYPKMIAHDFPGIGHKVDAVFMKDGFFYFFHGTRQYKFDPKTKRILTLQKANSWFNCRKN
Briefly: In vitro inhibitory activity against matrix metalloprotease 1 isolated from the culture medium of human skin fibroblasts induced with PMA.

The next data set has as its target T4, Matrilysin (Homo sapiens, UniProt P09237).
T4 sequence (P09237 whole entry): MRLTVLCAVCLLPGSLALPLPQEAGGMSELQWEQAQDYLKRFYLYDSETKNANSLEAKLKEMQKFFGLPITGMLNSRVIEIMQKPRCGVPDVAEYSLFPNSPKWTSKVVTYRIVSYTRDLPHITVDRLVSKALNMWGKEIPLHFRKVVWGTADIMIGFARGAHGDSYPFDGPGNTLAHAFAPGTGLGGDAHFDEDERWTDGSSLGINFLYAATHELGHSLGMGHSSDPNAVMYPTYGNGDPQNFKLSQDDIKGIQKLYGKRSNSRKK
Description: In vitro inhibitory activity against human recombinant matrix metalloprotease 7.

Data set [3] is described as follows: Half life was measured in monkey at dose of 10 mg/kg by po administration. The data set is classed as ADME, organism-based. Particulars: primates, in vivo. On the set-up: dose 10 mg/kg, route oral.
The nature of data set [4]: Oral bioavailability in monkey (dose 10 mg/kg). The following applies: primates, in vivo. The data set is classed as ADME, organism-based.
In data set [5] the target is T1, 72 kDa type IV collagenase. Briefly: Inhibition of matrix metalloprotease 2 (MMP2) of human HT1080 fibrosarcoma cells induced with TNF.
Data set [6] addresses T2, Stromelysin-1. Description: Inhibition of human recombinant matrix metalloprotease 3 (MMP3).
A short description of data set [7]: Bioavailability in rat after po administration of 30 mg/kg dose. Format: ADME, organism-based. Particulars: in vivo.
The nature of data set [8]: Half life was measured in rat at dose of 30 mg/kg by iv administration. The data set is classed as ADME, organism-based. On the set-up: dose 30 mg/kg, route intravenous. The following applies: in vivo.
Data set [9] is described as follows: Bioavailability in monkey after po administration of 10 mg/kg dose. The data set is classed as ADME, organism-based. Particulars: primates, in vivo.
A short description of data set [10]: Half life was measured in rat at dose of 30 mg/kg by po administration. The data set is classed as ADME, organism-based. On the set-up: dose 30 mg/kg, route oral. Particulars: in vivo.

T2 sequence (P08254 whole entry): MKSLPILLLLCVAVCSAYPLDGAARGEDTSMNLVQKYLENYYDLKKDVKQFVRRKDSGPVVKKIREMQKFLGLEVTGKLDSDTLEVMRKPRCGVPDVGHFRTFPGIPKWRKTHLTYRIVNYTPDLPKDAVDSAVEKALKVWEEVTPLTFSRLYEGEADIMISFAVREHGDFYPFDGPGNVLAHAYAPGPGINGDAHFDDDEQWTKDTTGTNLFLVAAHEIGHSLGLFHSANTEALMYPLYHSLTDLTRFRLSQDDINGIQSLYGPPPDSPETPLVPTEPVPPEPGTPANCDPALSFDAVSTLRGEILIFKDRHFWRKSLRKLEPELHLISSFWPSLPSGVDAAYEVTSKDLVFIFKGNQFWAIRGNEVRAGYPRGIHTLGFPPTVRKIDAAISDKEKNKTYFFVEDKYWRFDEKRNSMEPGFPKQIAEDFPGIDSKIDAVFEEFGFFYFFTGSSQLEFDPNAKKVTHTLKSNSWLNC
T1 sequence (P08253 whole entry): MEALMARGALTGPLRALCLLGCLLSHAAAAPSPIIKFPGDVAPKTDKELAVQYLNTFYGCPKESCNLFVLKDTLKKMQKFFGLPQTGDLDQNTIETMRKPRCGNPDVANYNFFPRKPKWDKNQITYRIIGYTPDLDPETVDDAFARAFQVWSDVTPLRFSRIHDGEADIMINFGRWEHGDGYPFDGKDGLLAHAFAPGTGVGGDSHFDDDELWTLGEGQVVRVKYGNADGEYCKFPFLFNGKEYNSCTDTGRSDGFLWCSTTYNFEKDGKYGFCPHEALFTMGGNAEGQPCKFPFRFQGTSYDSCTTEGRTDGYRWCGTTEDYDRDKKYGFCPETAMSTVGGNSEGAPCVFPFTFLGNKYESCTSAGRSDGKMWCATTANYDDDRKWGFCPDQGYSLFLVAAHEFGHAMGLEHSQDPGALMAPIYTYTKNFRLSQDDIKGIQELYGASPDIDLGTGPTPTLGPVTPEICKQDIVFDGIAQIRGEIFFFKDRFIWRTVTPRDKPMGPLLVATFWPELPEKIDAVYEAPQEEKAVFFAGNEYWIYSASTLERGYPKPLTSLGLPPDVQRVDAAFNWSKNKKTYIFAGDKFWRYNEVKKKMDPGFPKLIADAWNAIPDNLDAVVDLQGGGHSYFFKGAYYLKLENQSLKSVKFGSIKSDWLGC

For the compound `CC(C)C[C@H]1C(=O)N[C@H](C(=O)c2ccc(S(C)(=O)=O)cc2)Cc2ccc(cc2)OCCCC[C@@H]1C(=O)NO`, the IC50 in data set [1] was 8.5 nM; at Stromelysin-1 [2] it was 9.8 nM; against Interstitial collagenase, 60 nM; at Matrilysin, 5.7 nM.
Regarding `CC(C)C[C@H]1C(=O)N[C@H](C(=O)c2ccccc2)Cc2ccc(cc2)OCCCCC[C@@H]1C(=O)NO`, the IC50 in [1] was found to be 3.9 nM; against Interstitial collagenase it was 9.1 nM; on Matrilysin, 2.2 nM.
Take `CC(C)C[C@H]1C(=O)N[C@H](C(=O)c2ccc[nH]2)Cc2ccc(cc2)OCCCC[C@@H]1C(=O)NO`: the IC50 was found to be 7.2 nM in data set [1], 7.2 nM at Stromelysin-1 [2], 1.9 nM against Interstitial collagenase and 4.2 nM at Matrilysin.
For the compound `CC(C)C[C@H](CC(=O)NO)C(=O)N[C@@H](Cc1ccccc1)C(=O)c1c[nH]c2ccccc12`, the IC50 in data set [1] stood at 1 nM; against Interstitial collagenase, 5.1 nM; on Matrilysin, 4.3 nM.
Turning to `CC(C)C[C@H]1C(=O)N[C@H](C(=O)c2ccc(C(C)(C)C)cc2)Cc2ccc(cc2)OCCCC[C@@H]1C(=O)NO`, the IC50 in data set [1] was determined as 91 nM; on Stromelysin-1 [2], 110 nM; against Interstitial collagenase it was 270 nM; on Matrilysin, 40 nM.
Take `CC(C)C[C@H]1C(=O)N[C@H](C(=O)c2c[nH]c3ccccc23)Cc2ccc(cc2)OCCCCC[C@@H]1C(=O)NO`: the IC50 in [1] amounted to 6.1 nM; on Stromelysin-1 [2] it was 5.1 nM; on Interstitial collagenase, 4.8 nM; on Matrilysin it was 3.1 nM.
Regarding `CC(C)C[C@H]1C(=O)N[C@H](C(=O)c2ccccc2)Cc2ccc(cc2)OCCCC[C@@H]1C(=O)NO`, the IC50 in data set [1] was found to be 9.5 nM; at Stromelysin-1 [2], 8.9 nM; on Interstitial collagenase, 13 nM; at Matrilysin, 3.3 nM. Further, the half-life in data set [3] was 15 h. Further, in [4], the bioavailability was found to be 33%.
Regarding `CC(C)C[C@H]1C(=O)N[C@H](C(=O)c2ccc(CO)cc2)Cc2ccc(cc2)OCCCC[C@@H]1C(=O)NO`, the IC50 in [1] came out at 5.1 nM; at Stromelysin-1 [2], 3.4 nM; against Interstitial collagenase, 5 nM; on Matrilysin it was 1.5 nM.
As for `CNC(=O)[C@@H]1Cc2ccc(cc2)OCCCC[C@H](C(=O)NO)[C@@H](CC(C)C)C(=O)N1`, the IC50 in data set [1] is 5.6 nM; at Stromelysin-1 [2] it was 4 nM.
With `CNC(=O)[C@@H]1Cc2ccc(cc2)OCCCCC[C@H](C(=O)NO)[C@@H](CC(C)C)C(=O)N1`, the IC50 on Stromelysin-1 [2] was 2.6 nM; at Matrilysin, 6.1 nM.
Take `C=CCC(C(=O)NO)C(CC(C)C)C(=O)N[C@@H](Cc1ccccc1)C(=O)c1nc2ccccc2[nH]1` (single isomer, unassigned): the IC50 in [1] stood at 110 nM; at Stromelysin-1 [2], 54 nM; on Interstitial collagenase, 180 nM; on Matrilysin, 68 nM.
In the case of `C=CCC(C(=O)NO)C(CC(C)C)C(=O)N[C@@H](Cc1ccccc1)C(=O)c1cccnc1` (single isomer, unassigned), the half-inhibitory concentration (IC50) in data set [1] was 8.6 nM; at Stromelysin-1 [2] it was 10 nM; on Interstitial collagenase it was 14 nM; on Matrilysin, 8.6 nM.
`C=CCC(C(=O)NO)C(CC(C)C)C(=O)N[C@@H](Cc1ccccc1)C(=O)CC` (single isomer, unassigned): the IC50 worked out at 33 nM in data set [1], 82 nM on Stromelysin-1 [2], 40 nM on Interstitial collagenase and 39 nM at Matrilysin.
On to `C=CCC(C(=O)NO)C(CC(C)C)C(=O)N[C@@H](Cc1ccccc1)C(=O)c1nccs1` (single isomer, unassigned), for which the IC50 in [5] amounted to 1100 nM; at Stromelysin-1 [6], 360 nM; on Matrilysin it was 220 nM.
In the case of `C=CCC(C(=O)NO)C(CC(C)C)C(=O)N[C@@H](Cc1ccccc1)C(C)=O` (single isomer, unassigned), the IC50 is 22 nM in data set [1] and 45 nM on Matrilysin.
As for `C=CCC(C(=O)NO)C(CC(C)C)C(=O)N[C@@H](Cc1ccccc1)C(=O)c1cn(C)c2ccccc12` (single isomer, unassigned), the IC50 came to 23 nM in data set [1], 36 nM at Stromelysin-1 [2], 4.7 nM against Interstitial collagenase and 29 nM at Matrilysin.
For `C=CCC(C(=O)NO)C(CC(C)C)C(=O)N[C@@H](Cc1ccccc1)C(=O)c1ccccc1` (single isomer, unassigned), the IC50 was 3.4 nM in data set [1], 10 nM against Interstitial collagenase and 3.6 nM at Matrilysin.
In the same order, the values of `C=CCC(C(=O)NO)C(CC(C)C)C(=O)N[C@H](C(=O)c1c[nH]c2ccccc12)C(C)(C)C` (single isomer, unassigned) are 1.6 nM, 1.2 nM and 0.78 nM.
In turn, `CNC(=O)[C@@H](NC(=O)C(CC(C)C)C(O)C(=O)NO)C(C)(C)C` (single isomer, unassigned) gave a half-life in data set [3] of 27 h. Besides, in data set [4], the bioavailability turned out to be 15%.
On to `CC(C)CC(C(=O)N[C@H](C(=O)c1c[nH]c2ccccc12)C(C)(C)C)C(O)C(=O)NO` (single isomer, unassigned), for which the IC50 worked out at 0.38 nM in data set [1], 0.26 nM on Interstitial collagenase and 0.3 nM at Matrilysin. The half-life in data set [3] is 12 h. The compound also returned a bioavailability in data set [4] of 10%.
Take `C=CCC(C(=O)NO)C(CC(C)C)C(=O)N[C@@H](Cc1ccccc1)C(=O)c1ccc[nH]1` (single isomer, unassigned): the results for the IC50 (in data set [1]; on Interstitial collagenase; at Matrilysin) were 1.1 nM, 2.6 nM and 1.2 nM, respectively.
As to `C=CCC(C(=O)NO)C(CC(C)C)C(=O)N[C@@H](Cc1ccccc1)C(=O)c1cc[nH]c1` (single isomer, unassigned), the IC50 stood at 2.7 nM in data set [1], 6.6 nM on Stromelysin-1 [2], 6.2 nM against Interstitial collagenase and 8 nM on Matrilysin.
As for `C=CCC(C(=O)NO)C(CC(C)C)C(=O)N[C@@H](Cc1ccccc1)C(=O)c1cccs1` (single isomer, unassigned), the values for the IC50 (in data set [1]; at Stromelysin-1 [2]; on Matrilysin) were 6.5 nM, 3.2 nM and 13 nM, respectively.
Turning to `C=CCC(C(=O)NO)C(CC(C)C)C(=O)N[C@@H](Cc1ccccc1)C(=O)c1ncco1` (single isomer, unassigned), the IC50 in data set [1] was found to be 7.2 nM; on Stromelysin-1 [2] it was 1.8 nM; on Interstitial collagenase it was 2.7 nM; on Matrilysin, 4.2 nM.
With `C=CCC(C(=O)NO)C(CC(C)C)C(=O)N[C@@H](Cc1ccccc1)C(=O)NC` (single isomer, unassigned), the bioavailability in data set [7] was found to be 0%. Besides, on Matrilysin, the IC50 turned out to be 11 nM. Besides, in [8], the half-life was 0.35 h.
On to `CC(C)CC(C(=O)N[C@@H](Cc1ccccc1)C(=O)c1c[nH]c2ccccc12)C(O)C(=O)NO` (single isomer, unassigned), for which the IC50 in [1] was determined as 0.6 nM; at Interstitial collagenase, 5 nM; at Matrilysin, 1.1 nM.
For `C=CCC(C(=O)NO)C(CC(C)C)C(=O)N[C@@H](Cc1ccccc1)C(=O)c1c[nH]c2ccccc12` (single isomer, unassigned), the results for the bioavailability in data set [7] and in data set [9] were 7% and 12%, respectively. Moreover, the half-life is 20 h in data set [3] and 1.45 h in data set [10].
Regarding `CNC(=O)[C@H](Cc1ccccc1)NC(=O)[C@H](CC(C)C)[C@H](CSc1cccs1)C(=O)NO` [BATIMASTAT], on Matrilysin, the IC50 came out at 2.4 nM.

By IC50 is commonly meant the concentration that inhibits the measured activity by half. One may read the half-life as the time needed for the level to fall by half in the phase considered. What is called bioavailability is the share of a dose that reaches the circulation, judged against a reference dose that is usually intravenous.

Source of the values: ChEMBL document CHEMBL1130676, “Aryl ketones as novel replacements for the C-terminal amide bond of succinyl hydroxamate MMP inhibitors” (Bioorg Med Chem Lett, 1998).
